Measured values published in the NIST ThermoML archive (doi:10.1021/je049762q).

Experiment: molar heat capacity at constant pressure
Details: 101.33 kPa

Clc1ccc(Cl)cc1 [1,4-dichlorobenzene]
Details | molar heat capacity at constant pressure [J/K/mol]
194.87 K, Crystal 3 | 102.23
195.23 K, Crystal 3 | 102.39
197.82 K, Crystal 3 | 103.42
198.11 K, Crystal 3 | 103.53
200 K, Crystal 3 | 104.28
200.75 K, Crystal 3 | 104.57
200.98 K, Crystal 3 | 104.65
203.66 K, Crystal 3 | 105.76
206.55 K, Crystal 3 | 106.91
209.43 K, Crystal 3 | 108.06
210 K, Crystal 3 | 108.29
212.28 K, Crystal 3 | 109.21
215.03 K, Crystal 3 | 110.08
215.12 K, Crystal 3 | 110.42
217.8 K, Crystal 3 | 111.29
217.94 K, Crystal 3 | 111.43
220 K, Crystal 3 | 112.15
220.54 K, Crystal 3 | 112.37
220.75 K, Crystal 3 | 112.46
223.28 K, Crystal 3 | 113.45
225.99 K, Crystal 3 | 114.54
226.32 K, Crystal 3 | 114.68
228.7 K, Crystal 3 | 115.59
229.08 K, Crystal 3 | 115.81
230 K, Crystal 3 | 116.16
231.39 K, Crystal 3 | 116.65
231.82 K, Crystal 3 | 116.88
234.07 K, Crystal 3 | 117.7
234.55 K, Crystal 3 | 117.96
236.73 K, Crystal 3 | 118.76
237.27 K, Crystal 3 | 119.01
239.38 K, Crystal 3 | 119.79
239.97 K, Crystal 3 | 119.98
240 K, Crystal 3 | 119.99
242.02 K, Crystal 3 | 120.79
242.66 K, Crystal 3 | 121.05
244.65 K, Crystal 3 | 121.76
245.34 K, Crystal 3 | 122.11
247.26 K, Crystal 3 | 122.73
248 K, Crystal 3 | 123.17
249.87 K, Crystal 3 | 123.71
250 K, Crystal 3 | 123.77
250.66 K, Crystal 3 | 124.06
252.46 K, Crystal 3 | 124.73
253.3 K, Crystal 3 | 125.12
255.04 K, Crystal 3 | 125.74
257.61 K, Crystal 3 | 126.76
260 K, Crystal 3 | 127.72
260.16 K, Crystal 3 | 127.77
262.71 K, Crystal 3 | 128.79
265.24 K, Crystal 3 | 129.78
267.76 K, Crystal 3 | 130.84
270 K, Crystal 3 | 131.65
270.28 K, Crystal 3 | 131.78
272.78 K, Crystal 3 | 132.68
275 K, Crystal 2 | 134.45
275 K, Crystal 3 | 133.61
280 K, Crystal 2 | 135.94
281.42 K, Crystal 2 | 136.31
283.88 K, Crystal 2 | 137.36
286.32 K, Crystal 2 | 138.34
290 K, Crystal 2 | 139.78
292.1 K, Crystal 2 | 140.78
293.87 K, Crystal 2 | 141.42
296.42 K, Crystal 2 | 142.86
298.15 K, Crystal 2 | 143.78
298.96 K, Crystal 2 | 144.24
300 K, Crystal 2 | 144.8
301.51 K, Crystal 2 | 145.69
306 K, Crystal 1 | 147.86
306 K, Crystal 2 | 147.75
308.59 K, Crystal 1 | 148.61
310 K, Crystal 1 | 149.45
311.33 K, Crystal 1 | 150.45
314.11 K, Crystal 1 | 151.51
316.65 K, Crystal 1 | 152.8
319.2 K, Crystal 1 | 154.18
320 K, Crystal 1 | 154.72
321.74 K, Crystal 1 | 155.8
326.24 K, Crystal 1 | 158
326.24 K, Liquid | 175.98
330 K, Liquid | 176.87
331.52 K, Liquid | 177.33
332.72 K, Liquid | 177.51
333.8 K, Liquid | 177.86
335.4 K, Liquid | 178.04
336.04 K, Liquid | 178.35
337.95 K, Liquid | 178.72
338.28 K, Liquid | 178.83
340 K, Liquid | 179.23
340.5 K, Liquid | 179.25
340.53 K, Liquid | 179.38
342.77 K, Liquid | 179.91
343.05 K, Liquid | 179.96
345.6 K, Liquid | 180.47
348.14 K, Liquid | 181.07
350 K, Liquid | 181.59
350.69 K, Liquid | 181.7
353.24 K, Liquid | 182.31
355.79 K, Liquid | 183.1
358.34 K, Liquid | 183.5
360 K, Liquid | 183.95
360.89 K, Liquid | 184.17
363.44 K, Liquid | 184.8
368.54 K, Liquid | 185.95
370 K, Liquid | 186.3
371.09 K, Liquid | 186.69
373.64 K, Liquid | 187.14
376.2 K, Liquid | 187.74
380 K, Liquid | 188.66
